The results in this text go back to PMC6510928, “Characterisation of the Ral GTPase inhibitor RBC8 in human and mouse platelets” (Cellular Signalling, 2019).

The target of one assay is T1, RalB (Homo sapiens, UniProt P11234).
T1 sequence (P11234 1-203): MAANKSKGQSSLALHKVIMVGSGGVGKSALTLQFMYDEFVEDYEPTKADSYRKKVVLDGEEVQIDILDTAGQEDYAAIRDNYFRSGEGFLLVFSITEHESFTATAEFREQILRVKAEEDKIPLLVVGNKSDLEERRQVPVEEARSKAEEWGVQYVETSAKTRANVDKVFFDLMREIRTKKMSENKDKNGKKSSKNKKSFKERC
Kind of assay: GST-RalBP1 pulldown of RalB-GTP from RBC8-treated, CRP-stimulated human platelets, immunoblot densitometry. It counts as cell-based.

A further assay deals with T2, RalA (Homo sapiens, UniProt P11233).
T2 sequence (P11233 1-203): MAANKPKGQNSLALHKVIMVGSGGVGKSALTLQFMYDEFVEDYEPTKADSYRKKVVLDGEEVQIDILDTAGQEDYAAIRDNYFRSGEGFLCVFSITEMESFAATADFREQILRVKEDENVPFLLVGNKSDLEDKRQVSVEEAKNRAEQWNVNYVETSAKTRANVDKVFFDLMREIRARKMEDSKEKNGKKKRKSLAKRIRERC
Kind of assay: GST-RalBP1 pulldown of RalA-GTP from RBC8-treated, CRP-stimulated human platelets, immunoblot densitometry. The format is cell-based. (Immunoblotting shows a protein as a band on a membrane.)

For orientation: IC50 means the concentration that gives 50% inhibition. Low readings indicate greater potency, high ones weaker potency. Turning to `COc1ccc(OC)c(C2C(C#N)=C(N)Oc3n[nH]c(-c4ccc5ccccc5c4)c32)c1` (centres unmarked) [RBC8], the results for the IC50 against RalB and at RalA were 2300 nM and 2200 nM, respectively.
